Test results reported in patent publication US20130338155A1, “METHOD FOR TREATING INFECTIONS” (SYNTA PHARMACEUTICALS CORP., priority 2006, published 2013).

Experiments:
Her2 = test: Degradation of Her2 in BT-474 cells (Method 1, Western blot); type: cell-based, Human; conditions: overnight, FIG. 2
Experimental: Human high-Her2 breast carcinoma BT474 (HTB-20), SK-BR-3 (HTB-30) and MCF-7 breast carcinoma (HTB-22) from American Type Culture Collection, Va., USA were grown in Dulbecco's modified Eagle's medium with 4 mM L-glutamine and antibiotics (100 IU/ml penicillin and 100 ug/ml streptomycine; GibcoBRL). To obtain exponential cell growth, cells were trypsinized, counted and seeded at a cell density of 0.5×10^6 cells/ml regularly, every 3 days. All experiments were performed on day 1 after cell passage.
BT-474 cells were treated with 0.5 μM, 2 μM, or 5 μM of 17AAG (a positive control) or 0.5 μM, 2 μM, or 5 μM of Compound 108 or Compound 49 overnight in DMEM medium. After treatment, each cytoplasmic sample was prepared from 1×10^6 cells by incubation of cell lysis buffer (#9803, cell Signaling Technology) on ice for 10 minutes. The resulting supernatant used as the cytosol fractions were dissolved with sample buffer for SDS-PAGE and run on a SDS-PAGE gel, blotted onto a nitrocellulose membrane by using semi-dry transfer. Non-specific binding to nitrocellulose was blocked with 5% skim milk in TBS with 0.5% Tween at room temperature for 1 hour, then probed with anti-Her2/ErB2 mAb (rabbit IgG, #2242, Cell Signaling) and anti-Tubulin (T9026, Sigma) as, housekeeping control protein. HRP-conjugated goat anti-rabbit IgG (H+L) and HRP-conjugated horse anti-mouse IgG (H+L) were used as secondary Ab (#7074, #7076, Cell Signaling) and LumiGLO reagent, 20× Peroxide (#7003, Cell Signaling) was used for visualization.

Hsp90 protein = test: Malachite Green Assay of ATPase activity of Hsp90 protein; type: biochemical; conditions: 37° C. for 4 hours, FIG. 1
Experimental: Hsp90 protein was obtained from Stressgen (Cat#SPP-770). Assay buffer: 100 mM Tris-HCl, Ph7.4, 20 mM KCl, 6 mM MgCl2. […] Malachite green reagent was added to the reaction. […] The plate was read by an ELISA reader with an absorbance at 620 nm.

SMILES: CCc1cc(-c2nnc(S)n2-c2cccc3ccccc23)c(O)cc1O [Compound 49, 3-(2,4-Dihydroxy-5-ethyl-phenyl)-4-(naphthalen-1-yl)-5-mercapto-triazole]
- degradation of Her2 (Her2; 0.5 μM): partial degradated
- degradation of Her2 (Her2; 2 μM): complete degradation
- degradation of Her2 (Her2; 5 μM): complete degradation

SMILES: Oc1ccc(-c2nnc(S)n2-c2cccc3ccccc23)c(O)c1 [Compound 108, 3-(2,4-Dihydroxy-phenyl)-4-(naphthalen-1-yl)-5-mercapto-triazole]
- inhibition of ATPase activity of Hsp90 (Hsp90 protein; 4 μM): significant inhibition
- inhibition of ATPase activity of Hsp90 (Hsp90 protein; 40 μM): even greater inhibition of ATPase activity of Hsp90 than geldanamycin
- degradation of Her2 (Her2; 0.5 μM): partially degradated
- degradation of Her2 (Her2; 2 μM): partially degradated
- degradation of Her2 (Her2; 5 μM): almost completely degraded
